According to patent US20130225591A1, “IMIDOTHIAZOLE KINASE INHIBITORS” (priority 2009, published 2013):

Biological target: T1, CDK5-p25 kinase (Homo sapiens, UniProt Q00535)
T1 construct: purchased Invitrogen PV4677
Assay: CDK5-p25 kinase enzymatic assay
Assay type: biochemical
Settings: 50 nM-99 nM; 5 uM ATP, 0.3 nM CDK5-p25; read-out: IC50 potency, CDK5-p25 kinase enzymatic assay, 50 nM-99 nM
Procedure: CDK5-p25 kinase (Invitrogen PV4677) enzymatic activity was measured using electrophoretic separation and fluorescent detection to monitor phosphorylation of a fluorescently labeled histone H1-derived peptide substrate, FL29 (5-FAM-GGGPATPKKAKKL-CONH2, Caliper #760429)
First, 0.25 uL of serially diluted compound in DMSO at 100× concentration was transferred into each well of a 384-well polystyrene assay plate. To this was added 15 uL of a 1.67× enzyme solution (500 pM enzyme, 1 mM DTT (Sigma D9779), 1× reconstitution buffer with protease inhibitor (Caliper #700329 proprietary formulation)), followed by centrifugation for 1 min at 1000 rpm, and incubation for 5-15 min at room temperature to allow binding of compound to enzyme. To initiate the reaction, 10 uL of substrate/ATP mix (245 mM Hepes pH 7.5, 0.003% Brij 35, 0.004% Tween, 12.75 uM ATP, 3.75 uM FL29 peptide) were added to each well, followed by centrifugation at 1000 rpm for 1 min. The reaction was then incubated at room temperature for 30 min. Final assay conditions were: 0.3 nM CDK5-p25, 1.5 uM peptide, 5 uM ATP, 0.6 mM DTT, 1% DMSO, 98 mM HEPES pH 7.5.
After incubation, reactions were quenched by the addition of 45 uL Caliper termination solution (Caliper proprietary formula), followed by centrifugation at 1000 rpm for 1 min. Extent of reaction (percentage conversion of substrate to phosphorylated product) was then measured using the Caliper EZ II reader. Dose-response curves were created by plotting the inhibition of enzyme activity (normalized relative to vehicle treated and no ATP control reactions) as a function of the log of compound concentration. The curve was analyzed using a four parameter logistical fit to calculate IC50 values.

T1 sequence (Q00535 whole entry): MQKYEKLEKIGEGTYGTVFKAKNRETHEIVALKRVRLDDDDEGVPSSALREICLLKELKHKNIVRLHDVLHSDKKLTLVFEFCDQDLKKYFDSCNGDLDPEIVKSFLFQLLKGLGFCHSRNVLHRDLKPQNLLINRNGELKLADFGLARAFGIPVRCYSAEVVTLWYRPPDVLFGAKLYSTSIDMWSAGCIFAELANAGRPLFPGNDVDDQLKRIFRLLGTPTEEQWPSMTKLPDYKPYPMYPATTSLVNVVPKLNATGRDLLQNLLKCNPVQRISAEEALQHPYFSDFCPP
T1 sequence (Q15078 99-307 partner limits assumed): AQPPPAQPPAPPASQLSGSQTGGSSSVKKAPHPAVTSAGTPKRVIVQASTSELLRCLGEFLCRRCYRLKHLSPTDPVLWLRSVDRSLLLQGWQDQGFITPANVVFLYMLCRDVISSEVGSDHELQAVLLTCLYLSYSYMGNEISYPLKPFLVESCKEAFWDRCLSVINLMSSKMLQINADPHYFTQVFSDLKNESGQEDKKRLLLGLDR

IC50 [nM]	SMILES
50 to 99	Nc1ncc(-c2ccc(CC(=O)Nc3ncn4c(C(F)(F)F)csc34)cc2)cn1 [Example 35, 2-[4-(2-aminopyrimidin-5-yl)phenyl]-N-[3-(trifluoromethyl)imidazo[5,1-b][1,3]thiazol-7-yl]acetamide]
50 to 99	C[C@H](C(=O)Nc1ncn2c(C(F)(F)F)csc12)c1ccc2ccccc2c1 [Example 36, (2S)-2-(2-naphthyl)-N-[3-(trifluoromethyl)imidazo[5,1-b][1,3]thiazol-7-yl]propanamide]
50 to 99	CC(C(=O)Nc1ncn2c(C(F)(F)F)csc12)c1ccc2ncccc2c1 (centres unmarked) [Example 39, 2-quinolin-6-yl-N-[3-(trifluoromethyl)imidazo[5,1-b][1,3]thiazol-7-yl]propanamide]
50 to 99	O=C(Cc1ccc2ccccc2c1)Nc1ncn2c(C(F)F)csc12 [Example 41, N-[3-(difluoromethyl)imidazo[5,1-b][1,3]thiazol-7-yl]-2-(2-naphthyl) acetamide]
50 to 99	O=C(Nc1ncn2c(C(F)(F)F)csc12)C(Cl)c1ccc2ccccc2c1 (centres unmarked) [Example 42, 2-chloro-2-(2-naphthyl)-N-[3-(trifluoromethyl)imidazo[5,1-b][1,3]thiazol-7-yl]acetamide]
50 to 99	Nc1cc(Nc2cccc(CC(=O)Nc3ncn4c(C(F)(F)F)csc34)c2)ccn1 [Example 49, 2-{3-[(2-aminopyridin-4-yl)amino]phenyl}-N-[3-(trifluoromethyl)imidazo[5,1-b][1,3]thiazol-7-yl]acetamide]
50 to 99	O=C(Cc1c[nH]c2ccccc12)Nc1ncn2c(C(F)(F)F)csc12 [Example 57, 2-(1H-indol-3-yl)-N-[3-(trifluoromethyl)imidazo[5,1-b][1,3]thiazol-7-yl]acetamide]
50 to 99	O=C(Cc1cccc(NC(=O)c2cccnc2)c1)Nc1ncn2c(C(F)(F)F)csc12 [Example 59, N-[3-(2-oxo-2-{[3-(trifluoromethyl)imidazo[5,1-b][1,3]thiazol-7-yl]amino}ethyl)phenyl] nicotinamide]
50 to 99	O=C(Cc1cccc(NC(=O)c2ccncc2)c1)Nc1ncn2c(C(F)(F)F)csc12 [Example 60, N-[3-(2-oxo-2-{[3-(trifluoromethyl)imidazo[5,1-b][1,3]thiazol-7-yl]amino}ethyl)phenyl] isonicotinamide]
50 to 99	O=C(Cc1ccc(NC(=O)c2cccnc2)cc1)Nc1ncn2c(C(F)(F)F)csc12 [Example 61, N-[4-(2-oxo-2-{[3-(trifluoromethyl)imidazo[5,1-b][1,3]thiazol-7-yl]amino}ethyl)phenyl] nicotinamide]
50 to 99	Nc1ccccc1-c1ccc(CC(=O)Nc2ncn3c(C(F)(F)F)csc23)cn1 [Example 63, 2-[6-(2-aminophenyl)pyridin-3-yl]-N-[3-(trifluoromethyl)imidazo[5,1-b][1,3]thiazol-7-yl]acetamide]

Same assay, conditions: 500 nM-3 μM; 5 uM ATP, 0.3 nM CDK5-p25; read-out: IC50 potency, CDK5-p25 kinase enzymatic assay, 500 nM-3 μM

IC50 [nM]	SMILES
500 to 3000	O=C(Cc1ccc2ccccc2c1)Nc1ncn2c(C3CC3)csc12 [Example 38, N-(3-cyclopropyl-imidazo[5,1-b][1,3]thiazol-7-yl)-2-(2-naphthyl) acetamide]
500 to 3000	C[C@@H](C(=O)Nc1ncn2c(C(F)(F)F)csc12)c1ccc2ncccc2c1 [Example 47, (2R)-2-quinolin-6-yl-N-[3-(trifluoromethyl)imidazo[5,1-b][1,3]thiazol-7-yl]propanamide]

Same assay, conditions: 5 uM ATP, 0.3 nM CDK5-p25; read-out: IC50 potency, CDK5-p25 kinase enzymatic assay, 100 nM-499 nM

IC50 [nM]	SMILES
100 to 499	CC(C(=O)Nc1ncn2c(C(F)(F)F)csc12)c1ccc2ccccc2c1 (centres unmarked) [Example 34, 2-(2-naphthyl)-N-[3-(trifluoromethyl)imidazo[5,1-b][1,3]thiazol-7-yl]propanamide]
100 to 499	O=C(Nc1ncn2c(C(F)(F)F)csc12)C(O)c1ccc2ccccc2c1 (centres unmarked) [Example 40, 2-hydroxy-2-(2-naphthyl)-N-[3-(trifluoromethyl)imidazo[5,1-b][1,3]thiazol-7-yl]acetamide]
100 to 499	Cc1cnc(-c2ccc(CC(=O)Nc3ncn4c(C(F)(F)F)csc34)cc2)cn1 [Example 51, 2-[4-(5-methylpyrazin-2-yl)phenyl]-N-[3-(trifluoromethyl)imidazo[5,1-b][1,3]thiazol-7-yl]acetamide]
100 to 499	CS(=O)(=O)c1ccc(CC(=O)Nc2ncn3c(C(F)(F)F)csc23)cc1 [Example 58, 2-[4-(methylsulfonyl)phenyl]-N-[3-(trifluoromethyl)imidazo[5,1-b][1,3]thiazol-7-yl]acetamide]

Same assay, conditions: '<50 nM'; 5 uM ATP, 0.3 nM CDK5-p25; read-out: IC50 potency, CDK5-p25 kinase enzymatic assay, <50 nM

IC50 [nM]	SMILES
< 50	O=C(Nc1ncn2c(C(F)(F)F)csc12)C(F)c1ccc2ccccc2c1 (centres unmarked) [Example 33, 2-fluoro-2-(2-naphthyl)-N-[3-(trifluoromethyl)imidazo[5,1-b][1,3]thiazol-7-yl]acetamide]
< 50	O=C(Cc1ccc2[nH]ncc2c1)Nc1ncn2c(C(F)(F)F)csc12 [Example 37, 2-(1H-indazol-5-yl)-N-[3-(trifluoromethyl)imidazo[5,1-b][1,3]thiazol-7-yl]acetamide]
< 50	O=C(Cc1ccc(Cl)cc1)Nc1ncn2c(C(F)(F)F)csc12 [Example 43, 2-(4-chlorophenyl)-N-[3-(trifluoromethyl)imidazo[5,1-b][1,3]thiazol-7-yl]acetamide]
< 50	C[C@H](C(=O)Nc1ncn2c(C(F)(F)F)csc12)c1ccc2ncccc2c1 [Example 46, (2S)-2-quinolin-6-yl-N-[3-(trifluoromethyl)imidazo[5,1-b][1,3]thiazol-7-yl]propanamide]
< 50	O=C(Cc1cccc(-c2cc[nH]n2)c1)Nc1ncn2c(C(F)(F)F)csc12 [Example 48, 2-[3-(1H-pyrazol-3-yl)phenyl]-N-[3-(trifluoromethyl)imidazo[5,1-b][1,3]thiazol-7-yl]acetamide]
< 50	O=C(Cc1ccc(-c2ccccc2)nc1)Nc1ncn2c(C(F)(F)F)csc12 [Example 50, 2-(6-phenylpyridin-3-yl)-N-[3-(trifluoromethyl)imidazo[5,1-b][1,3]thiazol-7-yl]acetamide]
< 50	O=C(Cc1cccc(-c2cccnc2)c1)Nc1ncn2c(C(F)(F)F)csc12 [Example 52, 2-(3-pyridin-3-ylphenyl)-N-[3-(trifluoromethyl)imidazo[5,1-b][1,3]thiazol-7-yl]acetamide]
< 50	O=C(Cc1ccc(-c2ccsc2)cc1)Nc1ncn2c(C(F)(F)F)csc12 [Example 53, 2-[4-(3-thienyl)phenyl]-N-[3-(trifluoromethyl)imidazo[5,1-b][1,3]thiazol-7-yl]acetamide]
< 50	O=C(Cc1ccc(-c2ccccn2)cc1)Nc1ncn2c(C(F)(F)F)csc12 [Example 54, 2-(4-pyridin-2-ylphenyl)-N-[3-(trifluoromethyl)imidazo[5,1-b][1,3]thiazol-7-yl]acetamide]
< 50	Cc1ccc(-c2ccc(CC(=O)Nc3ncn4c(C(F)(F)F)csc34)cc2)cn1 [Example 55, 2-[4-(6-methylpyridin-3-yl)phenyl]-N-[3-(trifluoromethyl)imidazo[5,1-b][1,3]thiazol-7-yl]acetamide]
< 50	O=C(Cc1cccc(-c2ccccn2)c1)Nc1ncn2c(C(F)(F)F)csc12 [Example 56, 2-(3-pyridin-2-ylphenyl)-N-[3-(trifluoromethyl)imidazo[5,1-b][1,3]thiazol-7-yl]acetamide]
< 50	O=C(Cc1ccc(NC(=O)c2ccncc2)cc1)Nc1ncn2c(C(F)(F)F)csc12 [Example 62, N-[4-(2-oxo-2-{[3-(trifluoromethyl)imidazo[5,1-b][1,3]thiazol-7-yl]amino}ethyl)phenyl] isonicotinamide]
